Where “and” joins values, the source holds several entries; their conditions need not be identical. Identical values can stand only once. Toxic doses and inconclusive results are not listed. Numbered stars: 1 amine (or outer) side, 2 acyl side, 3 side chain; on linkers, the order of the positions; unused ones are H or OH. Bridge positions count the residues as written; N and C are the ends. Square brackets hold non-standard residues; d marks the D form. Peptide text beside a SMILES is read from it. I, II: the chains in the order shown. * marks the point of attachment. Actinocin(1to9) = Cc1c2oc3c(C)ccc(C(=O)[*:2])c3nc-2c(C(=O)[*:1])c(N)c1=O; X1 = O=C1CC(C(=O)[*:2])N([*:1])C1; NMeV = CN[CH](C(=O)O)C(C)C; Cbz = O=C(OCc1ccccc1)*; Sar = CNCC(=O)O
Test system: BDF1 mice, B16 melanoma ip, median survival T/C
Assay: NCI In Vivo Anticancer Drug Screen. Data for tumor model B16 Melanoma (intraperitoneal) in B6D2F1 (BDF1) mice
Settings: endpoint: median survival time, higher = longer survival
Procedure, shortened: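 Compounds were tested in mice carrying transplantable tumors. Survival or tumor size was recorded, and each value is the treated-group measurement (T) divided by that of the vehicle-treated control group (C).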

[1] = dose: 100.0 mg/kg/injection, schedule: Q04DX003 (ip), vehicle: Klucel (hydroxypropylcellulose) (HPC)
[2] = dose: 200.0 mg/kg/injection, schedule: Q04DX003 (ip), vehicle: Klucel (hydroxypropylcellulose) (HPC)
[3] = dose: 25.0 mg/kg/injection, schedule: Q01DX009 (ip), vehicle: saline with Tween-80
[4] = dose: 50.0 mg/kg/injection, schedule: Q01DX009 (ip), vehicle: saline with Tween-80
[5] = dose: 100.0 mg/kg/injection, schedule: Q01DX009 (ip), vehicle: saline with Tween-80
[6] = dose: 6.25 mg/kg/injection, schedule: Q01DX009 (ip), vehicle: saline with Tween-80
[7] = dose: 6.25 mg/kg/injection, schedule: Q04DX003 (ip), vehicle: saline with Tween-80
[8] = dose: 12.5 mg/kg/injection, schedule: Q04DX003 (ip), vehicle: saline with Tween-80
[9] = dose: 25.0 mg/kg/injection, schedule: Q04DX003 (ip), vehicle: saline with Tween-80

## CCN1C[C@]2(COC)[C@H](O)C[C@H](OC)[C@]34C1[C@H]([C@H](OC)[C@H]23)[C@]1(OC(C)=O)[C@H]2[C@@H](OC(=O)c3ccccc3)[C@](O)(C[C@H]24)[C@@H](OC)[C@@H]1O
dose: 15.0 micrograms/kg/injection, schedule: Q01DX009 (ip), vehicle: Klucel (hydroxypropylcellulose) (HPC)
  T/C: 92 % of control
dose: 60.0 micrograms/kg/injection, schedule: Q01DX009 (ip), vehicle: Klucel (hydroxypropylcellulose) (HPC)
  T/C: 89 % of control
dose: 120.0 micrograms/kg/injection, schedule: Q01DX009 (ip), vehicle: Klucel (hydroxypropylcellulose) (HPC)
  T/C: 94 % of control

## CC(=N\O)/C(C)=N/O.CC(=N\O)/C(C)=N/O.CC(=N\O)/C(C)=N/O.CC(=N\O)/C(C)=N/O.[CH3-].[CH3-].[Co].[Co]
dose: 25.0 mg/kg/injection, schedule: Q01DX009 (ip), vehicle: Klucel (hydroxypropylcellulose) (HPC)
  T/C: 107 % of control
dose: 50.0 mg/kg/injection, schedule: Q01DX009 (ip), vehicle: Klucel (hydroxypropylcellulose) (HPC)
  T/C: 90 % of control
dose: 100.0 mg/kg/injection, schedule: Q01DX009 (ip), vehicle: Klucel (hydroxypropylcellulose) (HPC)
  T/C: 100 % of control

## [CH3][Sn]([CH3])([CH3])[O]C(=O)CCl
dose: 0.02 mg/kg/injection, schedule: Q01DX009 (ip), vehicle: saline
  T/C: 104 % of control
dose: 0.05 mg/kg/injection, schedule: Q01DX009 (ip), vehicle: saline
  T/C: 107 % of control
dose: 0.1 mg/kg/injection, schedule: Q01DX009 (ip), vehicle: saline
  T/C: 109 % of control
dose: 0.19 mg/kg/injection, schedule: Q01DX009 (ip), vehicle: saline
  T/C: 104 % of control
dose: 0.2 mg/kg/injection, schedule: Q01DX009 (ip), vehicle: saline
  T/C: 93 % of control
dose: 0.75 mg/kg/injection, schedule: Q01DX009 (ip), vehicle: saline
  T/C: 104 % of control

## C[CH2][Ge]1([CH2]C)[CH2]CC2(CCN(CCCN(C)C)C2)C[CH2]1
dose: 8.0 mg/kg/injection, schedule: Q02DX009 (ip), vehicle: saline
  T/C: 102 % of control
dose: 16.0 mg/kg/injection, schedule: Q02DX009 (ip), vehicle: saline
  T/C: 106 % of control
dose: 32.0 mg/kg/injection, schedule: Q02DX009 (ip), vehicle: saline
  T/C: 102 % of control

## COc1cc2c3c(c1)/C(=N\NC(N)=O)CCN3CCC2
[1]
  T/C: 97 % of control
[2]
  T/C: 100 % of control
dose: 400.0 mg/kg/injection, schedule: Q04DX003 (ip), vehicle: Klucel (hydroxypropylcellulose) (HPC)
  T/C: 100 % of control

## CCN(CC)CCOC(=O)c1ccccc1N(c1ccccc1)c1ccccc1
dose: 62.5 mg/kg/injection, schedule: Q01DX009 (ip), vehicle: saline sonified
  T/C: 102 % of control
dose: 125.0 mg/kg/injection, schedule: Q01DX009 (ip), vehicle: saline sonified
  T/C: 89 % of control
dose: 250.0 mg/kg/injection, schedule: Q01DX009 (ip), vehicle: saline sonified
  T/C: 89 % of control

## COc1cc(C(=O)O)c(Br)cc1C
[1]
  T/C: 105 % of control
[2]
  T/C: 97 % of control

## CC(O)C(NC(=O)OC(C)(C)C)C(=O)O (stereo not drawn)
dose: 200.0 mg/kg/injection, schedule: Q01DX009 (ip), vehicle: saline
  T/C: 105 % of control
dose: 400.0 mg/kg/injection, schedule: Q01DX009 (ip), vehicle: saline
  T/C: 93 % of control

## O=C1C=C[C@H](O)[C@@]2(CO)O[C@@H]12
dose: 1.25 mg/kg/injection, schedule: Q01DX009 (ip), vehicle: saline with Tween-80
  T/C: 101 % of control
dose: 2.5 mg/kg/injection, schedule: Q01DX009 (ip), vehicle: saline with Tween-80
  T/C: 101 % of control
dose: 5.0 mg/kg/injection, schedule: Q01DX009 (ip), vehicle: saline with Tween-80
  T/C: 122 % of control
dose: 10.0 mg/kg/injection, schedule: Q01DX009 (ip), vehicle: saline with Tween-80
  T/C: 104 % of control

## CCCCCCCCCCCCCCCC[N+]1(CC)CCCC1
dose: 0.1 mg/kg/injection, schedule: Q01DX009 (ip), vehicle: Klucel (hydroxypropylcellulose) (HPC)
  T/C: 102 % of control
dose: 0.2 mg/kg/injection, schedule: Q01DX009 (ip), vehicle: Klucel (hydroxypropylcellulose) (HPC)
  T/C: 95 % of control

## O=[N+]([O-])c1ccc([S][Pb]([c]2ccccc2)([c]2ccccc2)[c]2ccccc2)cc1
dose: 6.25 mg/kg/injection, schedule: Q04DX003 (ip), vehicle: Klucel (hydroxypropylcellulose) (HPC)
  T/C: 94 % of control
dose: 12.5 mg/kg/injection, schedule: Q04DX003 (ip), vehicle: Klucel (hydroxypropylcellulose) (HPC)
  T/C: 97 % of control
dose: 25.0 mg/kg/injection, schedule: Q04DX003 (ip), vehicle: Klucel (hydroxypropylcellulose) (HPC)
  T/C: 93 % of control
dose: 50.0 mg/kg/injection, schedule: Q04DX003 (ip), vehicle: Klucel (hydroxypropylcellulose) (HPC)
  T/C: 88 % of control

## COc1ccc(OC)c(C2N(Cc3ccccc3N(C)C)CCCN2Cc2ccccc2N(C)C)c1
[3]
  T/C: 102 % of control
[4]
  T/C: 93 % of control
[5]
  T/C: 90 % of control

## COC(=O)/C=C/NC(=O)c1ccccc1C(=O)OC
[1]
  T/C: 86 % of control
dose: 200.0 mg/kg/injection, schedule: Q01DX009 (ip), vehicle: Klucel (hydroxypropylcellulose) (HPC)
  T/C: 97 % of control
[2]
  T/C: 86 % of control

## COc1ccc(N=C=S)cc1N=C=S
[6]
  T/C: 102 % of control
[7]
  T/C: 105 % of control
dose: 12.5 mg/kg/injection, schedule: Q01DX009 (ip), vehicle: saline with Tween-80
  T/C: 92 % of control
[8]
  T/C: 115 % of control
[3]
  T/C: 100 % of control
[9]
  T/C: 113 % of control

## CCc1ccc2c(c1)N(CCCN(CCCl)CCCl)c1ccccc1S2
dose: 1.56 mg/kg/injection, schedule: Q01DX009 (ip), vehicle: saline with Tween-80
  T/C: 114 % of control
dose: 1.56 mg/kg/injection, schedule: Q04DX003 (ip), vehicle: saline with Tween-80
  T/C: 87 % of control
dose: 3.12 mg/kg/injection, schedule: Q01DX009 (ip), vehicle: saline with Tween-80
  T/C: 92 % of control and 123 % of control
dose: 3.12 mg/kg/injection, schedule: Q04DX003 (ip), vehicle: saline with Tween-80
  T/C: 110 % of control
[6]
  T/C: 111 % of control and 117 % of control
[7]
  T/C: 105 % of control
[8]
  T/C: 112 % of control
[9]
  T/C: 115 % of control

## CC(C)=CCC(O)C1=CC(=O)c2c(O)ccc(O)c2C1=O (stereo not drawn)
dose: 1.25 mg/kg/injection, schedule: Q01DX009 (ip), vehicle: Klucel (hydroxypropylcellulose) (HPC)
  T/C: 107 % of control
dose: 2.5 mg/kg/injection, schedule: Q01DX009 (ip), vehicle: Klucel (hydroxypropylcellulose) (HPC)
  T/C: 102 % of control
dose: 5.0 mg/kg/injection, schedule: Q01DX009 (ip), vehicle: Klucel (hydroxypropylcellulose) (HPC)
  T/C: 92 % of control
dose: 10.0 mg/kg/injection, schedule: Q01DX009 (ip), vehicle: Klucel (hydroxypropylcellulose) (HPC)
  T/C: 87 % of control

## O=NN(CCCl)C(=O)NCCO
dose: 3.12 mg/kg/injection, schedule: Q01DX009 (ip), vehicle: water
  T/C: 176 % of control

## Cc1c2oc3c(C)ccc(C(=O)NC4C(=O)NC(C(C)C)C(=O)N5CCCC5C(=O)N(C)CC(=O)N(C)C(C(C)C)C(=O)OC4C)c3nc-2c(C(=O)NC2C(=O)NC(C(C)C)C(=O)N3CC(=O)CC3C(=O)N(C)CC(=O)N(C)C(C(C)C)C(=O)OC2C)c(N)c1=O (stereo not drawn) (I: TV[X1][Sar][NMeV] / II: TVP[Sar][NMeV]; ester I:1-I:C, II:1-II:C; linker I:N-II:N via Actinocin(1to9); configuration not given here)
dose: 6.2 micrograms/kg/injection, schedule: Q01DX009 (ip), vehicle: water
  T/C: 123 % of control
dose: 9.4 micrograms/kg/injection, schedule: Q04DX003 (ip), vehicle: water
  T/C: 106 % of control
dose: 18.7 micrograms/kg/injection, schedule: Q04DX003 (ip), vehicle: water
  T/C: 123 % of control
dose: 25.0 micrograms/kg/injection, schedule: Q01DX001 (ip), vehicle: water
  T/C: 123 % of control
dose: 50.0 micrograms/kg/injection, schedule: Q01DX001 (ip), vehicle: water
  T/C: 116 % of control
dose: 100.0 micrograms/kg/injection, schedule: Q01DX001 (ip), vehicle: water
  T/C: 106 % of control

## O=c1[nH]c(Cl)ncc1F
dose: 37.5 mg/kg/injection, schedule: Q01DX009 (ip), vehicle: Klucel (hydroxypropylcellulose) (HPC)
  T/C: 87 % of control

## O=C(NC(Cc1ccccc1)C(=O)NC(Cc1ccc(O)cc1)C(=O)O)OCc1ccccc1 (stereo not drawn) (Cbz-Phe-Tyr-OH; configuration not given here)
[4]
  T/C: 105 % of control
[5]
  T/C: 86 % of control

## C[C@@H]1CN1C1=CC(=O)C(N2C[C@H]2C)=CC1=O
dose: 0.25 mg/kg/injection, schedule: Q01DX009 (ip), vehicle: saline
  T/C: 104 % of control
dose: 0.5 mg/kg/injection, schedule: Q01DX009 (ip), vehicle: saline
  T/C: 95 % of control

## O=[N+]([O-])c1cccc(N=Cc2ccccc2)c1
dose: 66.0 mg/kg/injection, schedule: Q01DX009 (ip), vehicle: Klucel (hydroxypropylcellulose) (HPC)
  T/C: 102 % of control
dose: 150.0 mg/kg/injection, schedule: Q01DX009 (ip), vehicle: Klucel (hydroxypropylcellulose) (HPC)
  T/C: 122 % of control

Source: PubChem BioAssay AID192 (DTP/NCI, 2004)
